The values that follow come from article PMC9736855, “Discovery of 3-Amino-1H-pyrazole-Based Kinase Inhibitors to Illuminate the Understudied PCTAIRE Family” (International Journal of Molecular Sciences, 2022).

SMILES strings stand for the structures. “Also recorded” adds a separate entry of the source.

One test has as its system TAF1. Put plainly: DSF. It counts as binding.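 Also: compound tested at 10 µM with 2 µM protein.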
The target of another test is T1, FGFR3 (Homo sapiens, UniProt P22607).
T1 construct: purchased in-house DSF panel (SGC Frankfurt)
Put plainly: DSF. The class given is binding.

For another test, the target named is T2, ULK1 (Homo sapiens, UniProt O75385).
T2 construct: purchased in-house DSF panel (SGC Frankfurt)
T2 sequence (O75385 1-283): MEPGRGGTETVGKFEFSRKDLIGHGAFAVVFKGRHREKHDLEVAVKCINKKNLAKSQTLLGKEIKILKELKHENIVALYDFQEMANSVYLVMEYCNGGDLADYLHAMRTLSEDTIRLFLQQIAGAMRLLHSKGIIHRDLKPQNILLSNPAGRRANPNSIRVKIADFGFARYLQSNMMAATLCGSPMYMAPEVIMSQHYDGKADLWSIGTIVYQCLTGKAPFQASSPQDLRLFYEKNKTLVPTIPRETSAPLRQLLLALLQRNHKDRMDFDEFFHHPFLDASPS
Put plainly: DSF. The class given is binding. The protocol: Measurements were performed in duplicates.

The next test has as its system HCT116-FUCCI cells. Put plainly: FUCCI cell cycle assay and viability assessment. The class given is cell-based. To be noted: for effect on the cell cycle (FUCCI): 1, 5, 10 µM (milciclib 1, 10 µM); for effect on the cell cycle (FUCCI) / pyknosed nuclei: 24 h; for pyknosed nuclei: average; for effect on cell count: 1, 5, 10 µM vs DMSO 0.1 %; for cells compared to the control: after 72 h, vs DMSO 0.1 %. The protocol:
This technology enables the detection of cell cycle states (G1, G2/M, or S phase) on a single cell level. Additionally, a viability assessment, as described by Tjaden et. al., was performed using Hoechst33342 as a nuclear marker. […] At 10 µM of the same compound, the pyknosed nuclei rate was even higher, on average 45% (Figure 9C). An increase in cells including a pyknosed nucleus indicate apoptotic cell death, due to typical morphological changes like DNA condensation. […] Milciclib is a published CDK2 inhibitor and was used as a reference compound [55]. […] At later time points, the G2/M phase arrest was no longer detectable (Table S7). This can be explained due to the increasing amount of apoptotic cells.
To validate the influence of the compounds on the cell cycle, a florescent ubiquitination-based cell cycle indicator (FUCCI) assay was performed as described previously. In Brief, HCT116-FUCCI cells, stably expressing the FUCCI system, introduced by the Sleeping Beauty transposon system, were seeded at a density of 1250 cells per well in a 384 well plate (Cell culture microplate, PS, f-bottom, µClear®, 781091, Greiner, Frickenhausen, Germany) in culture medium (50 µL per well) and stained additionally with 60 nM Hoechst33342 (Thermo Scientific). Fluorescence and cellular shape were measured before and after compound treatment for 72 h every 12 h using the CQ1 high-content confocal microscope (Yokogawa, Tokyo, Japan). Compounds were added directly to the cells at three different concentrations (1 µM, 5 µM and 10 µM). The following parameters were used for image acquisition: Ex 405 nm/Em 447/60 nm, 500ms, 50%; Ex 561 nm/Em 617/73 nm, 100 ms, 40%; Ex 488/Em 525/50 nm, 50 ms, 40%; Ex 640 nm/Em 685/40, 50 ms, 20 %; bright field, 300ms, 100% transmission, one centered field per well, 7 z stacks per well with 55 µm spacing. Analysis of images was performed using the CellPathfinder software (Yokogawa). The cell count was normalized against the cell count of cells treated with 0.1% DMSO. All normal gated cells were further classified in cells containing healthy, fragmented or pyknosed nuclei. […] Error bars show SEM of biological duplicates. All data can be found in Table S7.

For another test, the target named is T3, NEK1 (Homo sapiens, UniProt Q96PY6).
T3 construct: purchased in-house DSF panel (SGC Frankfurt)
T3 sequence (Q96PY6 1-328): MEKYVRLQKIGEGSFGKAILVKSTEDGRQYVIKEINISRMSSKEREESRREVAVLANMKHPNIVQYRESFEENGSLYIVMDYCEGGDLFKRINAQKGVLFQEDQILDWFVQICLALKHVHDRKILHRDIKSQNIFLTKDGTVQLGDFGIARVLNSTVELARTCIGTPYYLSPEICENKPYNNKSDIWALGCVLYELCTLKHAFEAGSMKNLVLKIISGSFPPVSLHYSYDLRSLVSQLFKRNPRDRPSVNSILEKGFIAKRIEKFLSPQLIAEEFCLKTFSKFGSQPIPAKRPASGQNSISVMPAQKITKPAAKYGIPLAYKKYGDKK
The test can be described thus: DSF. The class given is binding.

For a further test, the target named is T4, SRC (Homo sapiens, UniProt P12931).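 Also: compound tested at 10 µM with 2 µM protein.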
T4 construct: purchased in-house DSF panel (SGC Frankfurt)
The test can be described thus: DSF. It counts as binding.

The target of a further test is T5, STK6 (Homo sapiens, UniProt O14965).
T5 construct: purchased in-house DSF panel (SGC Frankfurt)
T5 sequence (O14965 122-403): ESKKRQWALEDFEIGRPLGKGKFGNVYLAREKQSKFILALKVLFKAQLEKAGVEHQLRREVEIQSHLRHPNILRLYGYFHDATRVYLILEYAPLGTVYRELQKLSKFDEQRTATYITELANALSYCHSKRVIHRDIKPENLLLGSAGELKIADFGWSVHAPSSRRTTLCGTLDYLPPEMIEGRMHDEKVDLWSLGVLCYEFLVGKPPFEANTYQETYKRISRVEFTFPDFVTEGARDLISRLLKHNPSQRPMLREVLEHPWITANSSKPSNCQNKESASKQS
The test can be described thus: DSF. The class given is binding.

The target of a further test is T6, MAPK15 (Homo sapiens, UniProt Q8TD08).
T6 construct: purchased in-house DSF panel (SGC Frankfurt)
T6 sequence (Q8TD08 1-346): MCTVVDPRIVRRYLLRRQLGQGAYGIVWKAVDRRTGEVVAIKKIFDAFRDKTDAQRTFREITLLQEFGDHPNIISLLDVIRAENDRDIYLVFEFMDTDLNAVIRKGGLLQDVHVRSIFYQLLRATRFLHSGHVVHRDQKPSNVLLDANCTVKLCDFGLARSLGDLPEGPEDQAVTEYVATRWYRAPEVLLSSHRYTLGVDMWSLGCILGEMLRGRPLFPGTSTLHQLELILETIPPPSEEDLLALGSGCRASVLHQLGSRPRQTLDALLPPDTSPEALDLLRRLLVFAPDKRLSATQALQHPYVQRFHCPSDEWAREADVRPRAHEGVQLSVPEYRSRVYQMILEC
The test can be described thus: DSF. It counts as binding.

The target of the next test is T7, MARK3 (Homo sapiens, UniProt P27448).
T7 construct: purchased in-house DSF panel (SGC Frankfurt)
Put plainly: DSF. It counts as binding.

In another test the target is T8, CAMKK2 (Homo sapiens, UniProt Q96RR4).
T8 construct: purchased in-house DSF panel (SGC Frankfurt)
Put plainly: DSF. The class given is binding.

Another test concerns the target T9, AKT3 (Homo sapiens, UniProt Q9Y243).
T9 construct: purchased in-house DSF panel (SGC Frankfurt)
Put plainly: DSF. It counts as binding.

T7 sequence (P27448 whole entry): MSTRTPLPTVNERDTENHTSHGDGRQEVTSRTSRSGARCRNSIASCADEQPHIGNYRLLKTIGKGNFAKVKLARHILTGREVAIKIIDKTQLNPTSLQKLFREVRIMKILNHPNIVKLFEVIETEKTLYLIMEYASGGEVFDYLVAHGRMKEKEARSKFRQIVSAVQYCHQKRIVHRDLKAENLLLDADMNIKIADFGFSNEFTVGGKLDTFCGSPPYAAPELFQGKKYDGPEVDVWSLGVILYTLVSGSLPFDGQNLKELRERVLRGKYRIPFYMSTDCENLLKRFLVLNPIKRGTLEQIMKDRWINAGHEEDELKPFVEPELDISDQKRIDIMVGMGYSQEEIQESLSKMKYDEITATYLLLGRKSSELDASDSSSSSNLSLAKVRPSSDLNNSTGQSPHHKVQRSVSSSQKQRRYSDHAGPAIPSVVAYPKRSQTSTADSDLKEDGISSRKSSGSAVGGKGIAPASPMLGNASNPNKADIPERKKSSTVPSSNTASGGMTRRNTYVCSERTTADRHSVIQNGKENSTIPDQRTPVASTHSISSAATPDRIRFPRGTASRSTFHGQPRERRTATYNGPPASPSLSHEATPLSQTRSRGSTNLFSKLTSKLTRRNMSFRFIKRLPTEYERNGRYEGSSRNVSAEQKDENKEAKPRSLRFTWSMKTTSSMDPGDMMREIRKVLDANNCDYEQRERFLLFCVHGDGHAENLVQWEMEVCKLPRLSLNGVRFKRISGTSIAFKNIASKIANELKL
T1 sequence (P22607 455-768): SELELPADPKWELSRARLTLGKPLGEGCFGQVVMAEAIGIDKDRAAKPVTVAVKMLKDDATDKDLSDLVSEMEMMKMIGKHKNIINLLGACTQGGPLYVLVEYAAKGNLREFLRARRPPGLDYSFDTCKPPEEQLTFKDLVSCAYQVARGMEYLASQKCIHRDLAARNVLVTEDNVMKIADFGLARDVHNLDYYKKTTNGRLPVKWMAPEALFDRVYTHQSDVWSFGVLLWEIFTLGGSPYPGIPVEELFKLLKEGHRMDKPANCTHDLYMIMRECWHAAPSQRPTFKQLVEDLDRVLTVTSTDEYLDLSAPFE
T9 sequence (Q9Y243 148-479): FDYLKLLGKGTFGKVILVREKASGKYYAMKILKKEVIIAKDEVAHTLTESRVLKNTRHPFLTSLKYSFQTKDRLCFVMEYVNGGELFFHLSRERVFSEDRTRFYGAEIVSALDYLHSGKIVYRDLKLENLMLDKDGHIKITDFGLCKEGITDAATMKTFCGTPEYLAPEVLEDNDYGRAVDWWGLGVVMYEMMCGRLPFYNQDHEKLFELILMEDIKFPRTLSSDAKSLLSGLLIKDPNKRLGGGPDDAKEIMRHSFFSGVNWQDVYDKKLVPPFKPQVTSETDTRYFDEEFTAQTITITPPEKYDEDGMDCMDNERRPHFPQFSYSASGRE
T4 sequence (P12931 254-536): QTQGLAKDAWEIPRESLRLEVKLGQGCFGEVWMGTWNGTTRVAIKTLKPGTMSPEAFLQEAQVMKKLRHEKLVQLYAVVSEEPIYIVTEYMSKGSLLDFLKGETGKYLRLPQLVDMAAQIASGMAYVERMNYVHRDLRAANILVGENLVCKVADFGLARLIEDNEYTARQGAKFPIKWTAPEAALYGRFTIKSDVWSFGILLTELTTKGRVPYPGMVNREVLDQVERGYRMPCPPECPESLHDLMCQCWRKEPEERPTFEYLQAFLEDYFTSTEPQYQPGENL
T8 sequence (Q96RR4 161-449): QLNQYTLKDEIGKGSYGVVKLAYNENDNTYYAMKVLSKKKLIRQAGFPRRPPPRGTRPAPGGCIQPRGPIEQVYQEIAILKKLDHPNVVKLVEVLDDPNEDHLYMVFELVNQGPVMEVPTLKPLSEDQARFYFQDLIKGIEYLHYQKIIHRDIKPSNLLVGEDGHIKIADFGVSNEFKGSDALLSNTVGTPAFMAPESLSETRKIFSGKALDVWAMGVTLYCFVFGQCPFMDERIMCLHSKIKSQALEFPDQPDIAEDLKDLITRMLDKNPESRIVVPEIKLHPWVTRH
Experimental for AKT3: (§1) Recombinant protein kinase domains with a concentration of 2 μM were mixed with a 10 μM compound solution in DMSO, 20 mM HEPES, pH 7.5, and 500 mM NaCl. SYPRO Orange (5000×, Invitrogen) was added as a fluorescence probe (1 µl per mL). Subsequently, temperature-dependent protein unfolding profiles were measured, using the QuantStudio™ 5 realtime PCR machine (Thermo Fisher, Waltham, MA, USA). […] The temperature was raised with a step rate of 3 °C per minute. Data points were analyzed with the internal software (Thermal Shift SoftwareTM Version 1.4, Thermo Fisher) using the Boltzmann equation to determine the inflection point of the transition curve [56]. Differences in melting temperature are given as ΔTm values in °C. Measurements were performed in duplicates.
Experimental for CAMKK2: as §1
Experimental for FGFR3: as §1
Experimental for MAPK15: as §1
Experimental for MARK3: as §1
Experimental for NEK1: as §1
Experimental for SRC: as §1
Experimental for STK6: as §1
Experimental for TAF1: as §1

On to `N#CCc1ccc(Nc2nccc(Nc3cc(C4CC4)[nH]n3)n2)cc1` [compound 1, reference compound], for which the “ΔTm TAF1” value with TAF1 came out at 0.1 °C. Moreover, the “ΔTm FGFR3” value on FGFR3 is 9.8 °C. In addition, on ULK1, the “ΔTm ULK1” value stood at 15.5 °C. Further, the “effect on the cell cycle (FUCCI)” value in the test on HCT116-FUCCI cells is “no effect on the cell cycle”. For the same molecule, the “ΔTm NEK1” value at NEK1 stood at 1.1 °C. Moreover, the “ΔTm SRC” value on SRC turned out to be 4.4 °C. Also, the “ΔTm STK6” value on STK6 was 14.3 °C. For the same molecule, the “ΔTm MAPK15” value on MAPK15 turned out to be 17.4 °C. Also, the “ΔTm MARK3” value on MARK3 is 8.1 °C. Moreover, on CAMKK2, the “ΔTm CAMKK2” value amounted to 12.0 °C.

As to `CC(C)(C)OC(=O)Nc1ccc(CNc2nccc(Nc3cc(C(=O)OC(C)(C)C)[nH]n3)n2)cc1` [43d, tert-butyl 3-((2-((4-((tert-butoxycarbonyl)amino)benzyl)amino)pyrimidin-4-yl)amino)-1H-pyrazole-5-carboxylate], in the test with TAF1, the “ΔTm TAF1” value worked out at 0.0 °C. For the same molecule, the “ΔTm AKT3” value at AKT3 stood at 0.5 °C. The same molecule had a pyknosed nuclei in the test on HCT116-FUCCI cells (1 µM) of 10%. In the test with HCT116-FUCCI cells (10 µM), this molecule registered a pyknosed nuclei of 45%. For the same molecule, in the test with HCT116-FUCCI cells, the “effect on the cell cycle (FUCCI)” value is reported as “G2/M phase cell cycle arrest; also recorded: accumulation of cells in G2/M phases”, the “effect on cell count” value was “decreased the cell count in a dose-dependent manner” and the “cells compared to the control” value is “less than 50%”. Further, at NEK1, the “ΔTm NEK1” value was determined as 0.1 °C. In addition, the “ΔTm SRC” value on SRC was determined as 0.6 °C. On STK6, the “ΔTm STK6” value is 4.0 °C. The “ΔTm MAPK15” value at MAPK15 stood at 5.8 °C. The “ΔTm MARK3” value on MARK3 was -0.5 °C. Also, the “ΔTm CAMKK2” value on CAMKK2 was 0.1 °C.

Regarding `CC(C)OC(=O)c1cc(Nc2ccnc(NCc3ccc(NC(=O)OC(C)(C)C)cc3)n2)n[nH]1` [42d, isopropyl 3-((2-((4-((tert-butoxycarbonyl)amino)benzyl)amino)pyrimidin-4-yl)amino)-1H-pyrazole-5-carboxylate], in the test on TAF1, the “ΔTm TAF1” value worked out at 0.5 °C. Also, the “ΔTm AKT3” value at AKT3 was found to be 0.6 °C. Besides, the “effect on the cell cycle (FUCCI)” value with HCT116-FUCCI cells is recorded as “accumulation of cells in G2/M phases”. Besides, the “ΔTm NEK1” value at NEK1 came out at 0.2 °C. Further, the “ΔTm SRC” value on SRC was 0.4 °C. Also, the “ΔTm STK6” value on STK6 was found to be 3.4 °C. Further, the “ΔTm MAPK15” value on MAPK15 turned out to be 7.0 °C. Further, on MARK3, the “ΔTm MARK3” value is -0.4 °C. Moreover, the “ΔTm CAMKK2” value at CAMKK2 was -0.6 °C.

In the case of `COC(=O)c1cc(Nc2ccnc(NCCOCCNC(=O)OC(C)(C)C)n2)[nH]n1` [21d, methyl 5-((2-((2-(2-((tert-butoxycarbonyl)amino)ethoxy)ethyl)amino)pyrimidin-4-yl)amino)-1H-pyrazole-3-carboxylate], the “ΔTm TAF1” value with TAF1 stood at 0.0 °C. The “ΔTm AKT3” value on AKT3 was determined as 0.3 °C. On FGFR3, the “ΔTm FGFR3” value came to 0.6 °C. On ULK1, the “ΔTm ULK1” value was 2.3 °C. Further, the “ΔTm NEK1” value at NEK1 worked out at 0.1 °C. Besides, the “ΔTm SRC” value on SRC is 0.5 °C. Further, the “ΔTm STK6” value at STK6 was 3.2 °C. Besides, the “ΔTm MAPK15” value on MAPK15 was found to be 4.1 °C. The “ΔTm MARK3” value at MARK3 was found to be 2.5 °C. Also, the “ΔTm CAMKK2” value at CAMKK2 came to 0.5 °C.

In the case of `CN[C@@H]1C[C@H]2O[C@@](C)([C@@H]1OC)n1c3ccccc3c3c4c(c5c6ccccc6n2c5c31)C(=O)NC4` [staurosporine, reference compound], the “ΔTm ULK1” value on ULK1 worked out at 11.3 °C.

As for `COC(=O)c1cc(Nc2ccnc(NCc3ccc(NC(=O)OC(C)(C)C)cc3)n2)[nH]n1` [21i, methyl 5-((2-((4-((tert-butoxycarbonyl)amino)benzyl)amino)pyrimidin-4-yl)amino)-1H-pyrazole-3-carboxylate], in the test on TAF1, the “ΔTm TAF1” value stood at 0.2 °C. For the same molecule, the “ΔTm AKT3” value at AKT3 is -0.3 °C. The “ΔTm FGFR3” value at FGFR3 is 1.2 °C. Further, the “ΔTm ULK1” value at ULK1 was 2.7 °C. For the same molecule, in the test with HCT116-FUCCI cells, the “effect on the cell cycle (FUCCI)” value is recorded as “accumulation of cells in G2/M phases”, the “effect on cell count” value is reported as “decreased the cell count” and the “cells compared to the control” value is reported as “less than 50%”. The “ΔTm NEK1” value on NEK1 was found to be 0.4 °C. Besides, at SRC, the “ΔTm SRC” value amounted to 0.6 °C. Besides, the “ΔTm STK6” value at STK6 worked out at 4.6 °C. Besides, the “ΔTm MAPK15” value at MAPK15 was found to be 5.9 °C. Further, the “ΔTm MARK3” value on MARK3 was determined as 1.5 °C. Further, the “ΔTm CAMKK2” value on CAMKK2 was found to be 1.1 °C.
